Results on 21 molecules are retold here after PMC8634693 (European Journal of Medicinal Chemistry, 2021).

Data set [1] has as its target T1, SARS-CoV-2 3CL^pro (Severe acute respiratory syndrome coronavirus 2, UniProt P0DTD1). The class given is biochemical.
Data set [2] has as its target T1, SARS-CoV-2 3CL^pro. The class given is biochemical. This is another data set of the same source.
A short description of data set [3]: Gastrointestinal stability in simulated gastric fluid. The conditions noted are these: 20 μM, 37 °C, in 90 min. The class given is in vitro ADME.
Data set [4] is described as follows: Phase I metabolic stability in human liver microsomes.
Data set [5] is described as follows: Phase II metabolic stability. Particulars: human liver microsomes, in the presence of UDPGA.
Data set [6] can be described thus: Plasma stability in human plasma. The data set is classed as in vitro ADME. The conditions noted are these: 37 °C, up to 12 h.

“Also recorded” adds a separate entry of the source.

`CC(=O)OCC1Cc2c(-c3ccccn3)ccc(C)c2-c2c(O)ccc(C)c21` (stereo not shown) [Compound A8]: at SARS-CoV-2 3CL^pro [1], the “inhibitory activity against SARS-CoV-2 3CLpro, in words” value (“inhibitory activity” for short) is “significant loss of potency”.
With `COc1ccc(-c2ccccn2)c2c1-c1c(O)ccc(C)c1C(COC(C)=O)C2` (stereo not shown) [Compound A9], the “inhibitory activity” value against SARS-CoV-2 3CL^pro [1] was “significant loss of potency”.
As to `CC(=O)OCC1Cc2c(-c3ccccn3)ccc(F)c2-c2c(O)ccc(C)c21` (stereo not shown) [Compound A10], the “inhibitory activity” value on SARS-CoV-2 3CL^pro [1] is given as “significant loss of potency”.
Regarding `CC(=O)OCC1Cc2c(-c3ccccn3)ccc(Br)c2-c2c(O)ccc(C)c21` (stereo not shown) [Compound A12], at SARS-CoV-2 3CL^pro [1], the “inhibitory activity” value was “significant loss of potency”.
Regarding `CC(=O)OCC1Cc2c(-c3ncccc3C)cccc2-c2c(O)ccc(C)c21` (stereo not shown) [Compound A15], the “inhibitory activity” value against SARS-CoV-2 3CL^pro [1] is given as “comparable inhibitory activities with A1”.
Take `CC(=O)OCC1Cc2c(-c3cc(C)ccn3)cccc2-c2c(O)ccc(C)c21` (stereo not shown) [Compound A16]: the “inhibitory activity” value against SARS-CoV-2 3CL^pro [1] is “comparable inhibitory activities with A1”.
For `CC(=O)OCC1Cc2c(-c3ccc(F)cn3)cccc2-c2c(O)ccc(C)c21` (stereo not shown) [Compound A18], on SARS-CoV-2 3CL^pro [1], the “inhibitory activity” value is listed as “comparable inhibitory activities with A1”.
For `CC(=O)OCC1Cc2c(-c3ccc(Cl)cn3)cccc2-c2c(O)ccc(C)c21` (stereo not shown) [Compound A19], the “inhibitory activity” value on SARS-CoV-2 3CL^pro [1] is reported as “increased inhibitory activities”.
With `CC(=O)OCC1Cc2c(-c3ccc(Br)cn3)cccc2-c2c(O)ccc(C)c21` (stereo not shown) [Compound A20], the “inhibitory activity” value at SARS-CoV-2 3CL^pro [1] is given as “increased inhibitory activities”.
As to `CC(=O)OCC1Cc2c(cccc2-c2nccc3ccccc23)-c2c(O)ccc(C)c21` (stereo not shown) [Compound A21], the “inhibitory activity” value against SARS-CoV-2 3CL^pro [1] is recorded as “increased inhibitory activities”.
Still for that read-out and setting: the same measure for `CC(=O)OCC1Cc2c(-c3cc4ccccc4cn3)cccc2-c2c(O)ccc(C)c21` (stereo not shown) [Compound A22]: “increased inhibitory activities”; for `CC(=O)OCC1Cc2c(-c3ccc4ccccc4n3)cccc2-c2c(O)ccc(C)c21` (stereo not shown) [Compound A23]: “increased inhibitory activities”.
On to `CC(=O)OCC1Cc2c(-c3ncccn3)cccc2-c2c(O)ccc(C)c21` (stereo not shown) [Compound A24], for which the “inhibitory activity” value against SARS-CoV-2 3CL^pro [1] is on record as “no inhibitory activity”.
As for `CC(=O)OCC1Cc2c(-c3ccncn3)cccc2-c2c(O)ccc(C)c21` (stereo not shown) [Compound A25], the “inhibitory activity” value against SARS-CoV-2 3CL^pro [1] is “no inhibitory activity”.
Still for that read-out and setting: the same measure for `CC(=O)OCC1Cc2c(cccc2-n2cccn2)-c2c(O)ccc(C)c21` (stereo not shown) [Compound A26]: “no inhibitory activity”; for `CC(=O)OCC1Cc2c(cccc2-c2ncnc3c2ncn3CC2CC2)-c2c(O)ccc(C)c21` (stereo not shown) [Compound A27]: “no inhibitory activity”; for `C=CCn1cnc2c(-c3cccc4c3CC(COC(C)=O)c3c(C)ccc(O)c3-4)ncnc21` (stereo not shown) [Compound A28]: “no inhibitory activity”.
As to `OCC1Cc2c(-c3cc(-c4ccccc4)ccn3)cccc2-c2c(O)ccc(-c3ccc(Br)cc3)c21` (stereo not shown) [Compound C1, 1-(4-bromophenyl)-10-(hydroxymethyl)-8-(4-phenylpyridin-2-yl)-9,10-dihydrophenanthren-4-ol], at SARS-CoV-2 3CL^pro [2], the Inhibition mode entry is on record as “Mixed” and the inhibition manner result was “mixed-inhibition”. Also, in data set [3], the “gastrointestinal stability in SGF and SIF” value is listed as “good gastrointestinal stabilities”. Also, the “metabolism by human cytochrome P450 enzymes (hCYPs), in words” value in data set [4] was “hardly metabolized”. In the data set with major CYPs in HLMs, the “inhibitory effects against CYPs” value is on record as “moderate inhibitory effects”. The “metabolism by human hepatic UDP-glucuronosyltransferases (hUGTs), in words” value in data set [5] is listed as “hardly metabolized”. Besides, in data set [6], the “plasma stability, in words” value is “prominent; also recorded: excellent plasma stability”.
Turning to `O=Cc1ccnc(-c2cccc3c2CC(CO)c2c(-c4ccc(Br)cc4)ccc(O)c2-3)c1` (stereo not shown) [Compound C2, 2-(8-(4-bromophenyl)-5-hydroxy-9-(hydroxymethyl)-9,10-dihydrophenanthren-1-yl)isonicotinaldehyde], at SARS-CoV-2 3CL^pro [2], the Inhibition mode result was “Mixed” and the inhibition manner result is given as “mixed-inhibition”. For the same molecule, in data set [3], the “gastrointestinal stability in SGF and SIF” value is on record as “good gastrointestinal stabilities”. Further, the “metabolism by human cytochrome P450 enzymes (hCYPs), in words” value in data set [4] is “readily metabolized”. For the same molecule, the “metabolism by human hepatic UDP-glucuronosyltransferases (hUGTs), in words” value in data set [5] is “moderately metabolized”.
Regarding `OCC1Cc2c(-c3ccc(F)cn3)cccc2-c2c(O)ccc(-c3ccc(Br)cc3)c21` (stereo not shown) [Compound C4, 1-(4-bromophenyl)-8-(5-fluoropyridin-2-yl)-10-(hydroxymethyl)-9,10-dihydrophenanthren-4-ol], the “inhibitory activity” value on SARS-CoV-2 3CL^pro [1] is listed as “slight decreases in the inhibitory activity”.
Take `OCC1Cc2c(-c3ccc(Cl)cn3)cccc2-c2c(O)ccc(-c3ccc(Br)cc3)c21` (stereo not shown) [Compound C5, 1-(4-bromophenyl)-8-(5-chloropyridin-2-yl)-10-(hydroxymethyl)-9,10-dihydrophenanthren-4-ol]: the “inhibitory activity” value against SARS-CoV-2 3CL^pro [1] was “slight decreases in the inhibitory activity”.
